Assay results as given in patent US20240383955A1, “MODIFIED ANTIMICROBIAL PEPTIDES” (priority 2021, published 2024).
Values after ≈ are worked out from the molar mass of the structure shown. Like-named read-outs stand apart in the source and are kept apart here. Square brackets hold non-standard residues; d marks the D form. Peptide text beside a SMILES is read from it. Dab = NCC[C@H](N)C(=O)O

Tests used:
[1] = system: B. cinerea, F. graminearum, F. oxysporum and P. capsici; type: cell-based; conditions: in vitro, low cationic conditions; for antifungal activity relative to the wild-type GMA4C_AC control: against B. cinerea, F. graminearum, F. oxysporum and P. capsici
C. parapsilosis = assay: MIC by CLSI M27/M38 methodology; type: cell-based, Candida parapsilosis; conditions: C. parapsilosis isolate ATCC 22019; Table 8
Procedure: (§1) Testing for antifungal activity used half-strength potato dextrose broth for peptides and RPMI for comparator antifungals fluconazole and voriconazole. CLSI M27 and M38 methodologies used for to measure MICs. Minimal Inhibitory Concentration (MIC) is the concentration of the compound, protein, or peptide at which there is no significant growth of the microorganism relative to the growth of the microorganism in growth medium lacking the compound, protein, or peptide.
(§2) […] The concentration range for peptides in potato dextrose broth was 0.06-2 mcg/ml, the concentration range for fluconazole was 0.125-64 mcg/ml, and the concentration range for voriconazole was 0.03-16 mcg/ml. MICs were determined at 24-72 hours.

Aspergillus fumigatus = assay: MIC by CLSI M27/M38 methodology; type: cell-based; conditions: Table 8
Procedure: as §1, §2

Candida albicans = assay: MIC by CLSI M27/M38 methodology; type: cell-based; conditions: Table 8
Procedure: as §1, §2

Candida auris = assay: MIC by CLSI M27/M38 methodology; type: cell-based; conditions: Table 8
Procedure: as §1, §2

Fusarium (F. oxysporum) = assay: MIC by CLSI M27/M38 methodology; type: cell-based; conditions: Table 8
Procedure: as §1, §2

Fusarium (F. solani) = assay: MIC by CLSI M27/M38 methodology; type: cell-based; conditions: Fusarium isolate F4 (F. solani); Table 8
Procedure: as §1, §2

Coccidioides sp. = type: cell-based; conditions: Table 8
B. cinerea = assay: In vitro antifungal activity (MIC) in SFM culture media, with or without added salts
[2] = Aspergillus fumigatus isolate AF293
[3] = Aspergillus fumigatus isolate DI15-106
[4] = Aspergillus fumigatus isolate DI15-116
[5] = Candida albicans isolate ATCC 90028
[6] = Candida albicans isolate SC5314
[7] = Fusarium isolate F1 (F. oxysporum)
[8] = Fusarium isolate F2 (F. oxysporum)
[9] = Coccidioides sp. isolate Cocci1
[10] = Coccidioides sp. isolate Cocci2
[11] = Coccidioides sp. isolate DI17-143

SMILES	antifungal activity relative to the wild-type GMA4C_AC control [1]	MIC, 100% (C. parapsilosis)	MIC, 100% (Aspergillus fumigatus; [2])	MIC, 100% (Aspergillus fumigatus; [3])	MIC, 100% (Aspergillus fumigatus; [4])	MIC, 100% (Candida albicans; [5])	MIC, 100% (Candida albicans; Candida albicans isolate CA3)	MIC, 100% (Candida albicans; [6])	MIC, 100% (Candida auris; Candida auris isolate DI17-46)	MIC, 100% (Candida auris; Candida auris isolate DI17-47)	MIC, 100% (Candida auris; Candida auris isolate DI17-48)	MIC, 100% (Fusarium (F. oxysporum); [7])	MIC, 100% (Fusarium (F. oxysporum); [8])	MIC, 100% (Fusarium (F. solani))	MIC, 100% (Coccidioides sp.; [9])	MIC, 100% (Coccidioides sp.; [10])	MIC, 100% (Coccidioides sp.; [11])	further results
N=C(N)NCCC[C@H](NC(=O)CNC(=O)[C@@H](N)Cc1ccccc1)C(=O)N[C@@H](CS)C(=O)N[C@@H](CCCNC(=N)N)C(=O)NCC(=O)N[C@@H](Cc1ccccc1)C(=O)N[C@@H](CCCNC(=N)N)C(=O)N[C@@H](CCCNC(=N)N)C(=O)N[C@@H](CCCNC(=N)N)C(=O)N[C@@H](CS)C(=O)N[C@@H](Cc1ccccc1)C(=O)N[C@@H](CS)C(=O)N[C@@H](Cc1c[nH]c2ccccc12)C(=O)N[C@@H](CCCNC(=N)N)C(=O)N[C@@H](Cc1c[nH]c2ccccc12)C(=O)N[C@@H](CS)C(N)=O [GMA4C_V4A] (H-FGRCRGFRRRCFCWRWC-NH2; N-terminus assumed)	equivalent to the wild-type GMA4C_AC control	8 µg/mL (≈ 3.49 µM)	16 µg/mL (≈ 6.97 µM)	16 µg/mL (≈ 6.97 µM)	32 µg/mL (≈ 13.9 µM)	8 µg/mL (≈ 3.49 µM)	8 µg/mL (≈ 3.49 µM)	8 µg/mL (≈ 3.49 µM)	8 µg/mL (≈ 3.49 µM)	8 µg/mL (≈ 3.49 µM)	8 µg/mL (≈ 3.49 µM)	8 µg/mL (≈ 3.49 µM)	8 µg/mL (≈ 3.49 µM)	8 µg/mL (≈ 3.49 µM)	4 µg/mL (≈ 1.74 µM)	16 µg/mL (≈ 6.97 µM)	16 µg/mL (≈ 6.97 µM)	fungal growth inhibition at 6 μM (B. cinerea; B. cinerea, in presence of 2 mM CaCl2, peptide 6 μM): inhibit fungal growth; potency of antifungal activity relative to GMA4C_AC (B. cinerea; B. cinerea, in presence of 100 mM NaCl or 100 mM KCl): 2 fold
CC[C@H](C)[C@H](NC(=O)[C@H](CCCNC(=N)N)NC(=O)[C@@H](NC(=O)[C@H](CS)NC(=O)[C@H](Cc1ccccc1)NC(=O)[C@H](CS)NC(=O)[C@H](CCCNC(=N)N)NC(=O)[C@H](CCCNC(=N)N)NC(=O)[C@H](CCCNC(=N)N)NC(=O)[C@H](Cc1ccccc1)NC(=O)CNC(=O)[C@H](CCCNC(=N)N)NC(=O)[C@H](CS)NC(=O)[C@H](CCCNC(=N)N)NC(=O)CNC(=O)CN)[C@@H](C)O)C(=O)N[C@@H](CS)C(N)=O [GMA4C_V2A] (H-GGRCRGFRRRCFCTRIC-NH2; N-terminus assumed)		8 µg/mL (≈ 3.91 µM)	32 µg/mL (≈ 15.6 µM)	>32 µg/mL	>32 µg/mL	16 µg/mL (≈ 7.82 µM)	16 µg/mL (≈ 7.82 µM)	16 µg/mL (≈ 7.82 µM)	16 µg/mL (≈ 7.82 µM)	16 µg/mL (≈ 7.82 µM)	16 µg/mL (≈ 7.82 µM)	8 µg/mL (≈ 3.91 µM)	16 µg/mL (≈ 7.82 µM)	8 µg/mL (≈ 3.91 µM)	8 µg/mL (≈ 3.91 µM)	16 µg/mL (≈ 7.82 µM)	16 µg/mL (≈ 7.82 µM)	reduction in antifungal activity relative to the wild-type GMA4C_AC control ([1]; against B. cinerea and F. graminearum): two-fold reduction
NCC[C@H](NC(=O)CNC(=O)[C@@H](N)Cc1ccccc1)C(=O)N[C@@H](CS)C(=O)N[C@@H](CCN)C(=O)NCC(=O)N[C@@H](Cc1ccccc1)C(=O)N[C@@H](CCN)C(=O)N[C@@H](CCN)C(=O)N[C@@H](CCN)C(=O)N[C@@H](CS)C(=O)N[C@@H](Cc1ccccc1)C(=O)N[C@@H](CS)C(=O)N[C@@H](Cc1c[nH]c2ccccc12)C(=O)N[C@@H](CCN)C(=O)N[C@@H](Cc1c[nH]c2ccccc12)C(=O)N[C@@H](CS)C(N)=O [GMA4C_V5A, FG(Dab)C(Dab)GF(Dab)(Dab)(Dab)CFCW(Dab)WC-NH2] (H-FG[Dab]C[Dab]GF[Dab][Dab][Dab]CFCW[Dab]WC-NH2; N-terminus assumed)	equivalent to the wild-type GMA4C_AC control	8 µg/mL (≈ 4.08 µM)	32 µg/mL (≈ 16.3 µM)	>32 µg/mL	>32 µg/mL	16 µg/mL (≈ 8.17 µM)	8 µg/mL (≈ 4.08 µM)	16 µg/mL (≈ 8.17 µM)	16 µg/mL (≈ 8.17 µM)	16 µg/mL (≈ 8.17 µM)	16 µg/mL (≈ 8.17 µM)	8 µg/mL (≈ 4.08 µM)	16 µg/mL (≈ 8.17 µM)	8 µg/mL (≈ 4.08 µM)	2 µg/mL (≈ 1.02 µM)	16 µg/mL (≈ 8.17 µM)	16 µg/mL (≈ 8.17 µM)	
C[C@@H](O)[C@H](NC(=O)[C@H](CS)NC(=O)[C@H](Cc1ccccc1)NC(=O)[C@H](CS)NC(=O)[C@H](CCCNC(=N)N)NC(=O)[C@H](CCCNC(=N)N)NC(=O)[C@H](CCCNC(=N)N)NC(=O)[C@H](Cc1ccccc1)NC(=O)CNC(=O)[C@H](CCCNC(=N)N)NC(=O)[C@H](CS)NC(=O)[C@H](CCCNC(=N)N)NC(=O)CNC(=O)CN)C(=O)N[C@H](C(=O)N[C@@H](Cc1c[nH]cn1)C(=O)N[C@@H](CS)C(N)=O)[C@@H](C)O [GMA4C_AC] (H-GGRCRGFRRRCFCTTHC-NH2; N-terminus assumed)																		F. graminearum MIC (F. graminearum): 3 µM; MIC Fusarium graminearum (F. graminearum): 3 µM (≈ 6.05 µg/mL); MIC Values against F. graminearum (F. graminearum): 6 µM (≈ 12.1 µg/mL); SFM + 2 mM CaCl2 MIC (B. cinerea; SFM + 2 mM CaCl2, Table 10): >6 (a few μM
